pIC50: −log10 of the molar value. Like-named read-outs stand apart in the source and are kept apart here.
Columns and labels:
HeLa cells = experiment: cells; assay type: cell-based;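 for Hela CellCycMod PI 4N summarized IC50: value tracks stimulation of 4N DNA content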
[1] = system: ECFC/ADSC co-culture cell nuclei number; settings: for pIC50: read-out: VEGF_ADSC\ECFC Angio Hoechst NucArea summarized IC50
[2] = system: endothelial tube formation in co-cultures of ECFCs and ADSCs treated with VEGF; experiment: cells; assay type: cell-based, human; settings: for pIC50: read-out: VEGF_ADSC\ECFC Angio CD31 TubeArea summarized IC50
[3] = assay number 14, 2N, read-out: Hela CellCycMod PI 2N summarized IC50
[4] = assay number 16, 4N, read-out: Hela CellCycMod PI 4N summarized IC50
[5] = assay number 17, MI, read-out: Hela CellCycMod PI MI summarized IC50
[6] = assay number 18, cell number, read-out: Hela CellCycMod PI Cell Number summarized IC50
[7] = assay number 15, S phase, read-out: Hela CellCycMod PI S Phase summarized IC50

| Structure (SMILES) | Hela CellCycMod PI 2N IC50/EC50 (HeLa cells; assay number 14, 2N) [µM] | Hela CellCycMod PI S Phase IC50/EC50 (HeLa cells; assay number 15, S phase) [µM] | Hela CellCycMod PI 4N IC50/EC50 (HeLa cells; assay number 16, 4N) [µM] | Hela CellCycMod PI MI IC50/EC50 (HeLa cells; assay number 17, MI) [µM] | Hela CellCycMod PI Cell Number IC50/EC50 (HeLa cells; assay number 18, cell number) [µM] | VEGF_ADSC\ECFC Angio Hoechst NucArea IC50/EC50 [1] [µM] | VEGF_ADSC\ECFC Angio CD31 TubeArea IC50/EC50 [2] [µM] | other results |
| --- | --- | --- | --- | --- | --- | --- | --- | --- |
| Cc1ccc(Nc2nccc(N(C)c3ccc4c(C)n(C)nc4c3)n2)cc1S(N)(=O)=O [NCGC00188865-03] | > 10 | > 10 | > 10 | > 10 | > 10 | > 10 | 0.0465 | – |
| COc1ccc(Cc2nccc3cc(OC)c(OC)cc23)cc1OC [NCGC00015810-12] | – | – | – | – | – | – | – | pIC50 (HeLa cells; [3]): < 5.00; pIC50 (HeLa cells; [4]): < 5.00; pIC50 (HeLa cells; [5]): < 5.00; pIC50 (HeLa cells; [6]): < 5.00; pIC50 [1]: < 5.00; pIC50 [2]: 5.11 |
| CCCCCCCCCCCCCCCC[N+](C)(C)Cc1ccccc1.[Cl-] [NCGC00344524-01] | > 10 | > 10 | > 10 | > 10 | > 10 | > 10 | 2.5333 | – |
| O=c1[nH]c(=O)n([C@H]2C[C@H](O)[C@@H](CO)O2)cc1I [NCGC00179673-03] | – | – | – | – | – | – | – | pIC50 (HeLa cells; [3]): < 5.00; pIC50 (HeLa cells; [7]): < 5.00; pIC50 (HeLa cells; [4]): < 5.00; pIC50 (HeLa cells; [5]): < 5.00; pIC50 (HeLa cells; [6]): < 5.00; pIC50 [1]: < 5.00; pIC50 [2]: 6.17 |
| Clc1ccc(Nc2nnc(Cc3ccncc3)c3ccccc23)cc1 [NCGC00181350-03] | > 10 | > 10 | > 10 | > 10 | > 10 | > 10 | 0.1109 | – |
| CC(=O)N(O)CCCCCNC(=O)CCC(=O)N(O)CCCCCNC(=O)CCC(=O)N(O)CCCCCN [NCGC00178802-06] | – | – | – | – | – | – | – | IC50/EC50, Hela CellCycMod PI 2N (assay number 14) (HeLa cells; 2N): > 10 µM; IC50/EC50, Hela CellCycMod PI 4N (assay number 16) (HeLa cells; 4N): > 10 µM; IC50/EC50, Hela CellCycMod PI Cell Number (assay number 18) (HeLa cells): > 10 µM; IC50/EC50, Hela CellCycMod PI MI (assay number 17) (HeLa cells; MI): > 10 µM; IC50/EC50, Hela CellCycMod PI S Phase (assay number 15) (HeLa cells; S Phase): > 10 µM; IC50/EC50, VEGF_ADSC\ECFC Angio Hoechst NucArea (assay number 3) [1]: > 10 µM; IC50/EC50, VEGF_ADSC\ECFC Angio CD31 TubeArea (assay number 2) [2]: 4.5338 µM |
| C[C@]12CC[C@@H]3c4ccc(O)cc4CC[C@H]3[C@@H]1CC[C@@H]2OC(=O)CCC1CCCC1 [NCGC00166134-02] | > 10 | > 10 | > 10 | > 10 | > 10 | > 10 | 6.3667 | – |
| O=c1[nH]c(=O)n([C@H]2C[C@H](O)[C@@H](CO)O2)cc1Br [NCGC00090770-09] | > 10 | > 10 | > 10 | > 10 | > 10 | > 10 | 3.8464 | – |
| Nc1nc(F)nc2c1ncn2[C@@H]1O[C@H](CO)[C@@H](O)[C@@H]1O [NCGC00182047-03] | > 10 | > 10 | > 10 | > 10 | > 10 | > 10 | 8.4496 | – |
| CCCCCCCCCCCC(=O)[O][Sn]([CH2]CCC)([CH2]CCC)[O]C(=O)CCCCCCCCCCC [NCGC00166115-02] | – | – | – | – | – | – | – | pIC50 (HeLa cells; [3]): < 5.00; pIC50 (HeLa cells; [7]): < 5.00; pIC50 (HeLa cells; [4]): < 5.00; pIC50 (HeLa cells; [5]): < 5.00; pIC50 (HeLa cells; [6]): < 5.00; pIC50 [1]: < 5.00; pIC50 [2]: 5.70 |
| COCCOC(=O)C1=C(C)NC(C)=C(C(=O)OC/C=C/c2ccccc2)C1c1cccc([N+](=O)[O-])c1 (centres unmarked) [NCGC00162150-04] | > 10 | > 10 | > 10 | > 10 | > 10 | > 10 | 6.4204 | – |
| COc1ccc(/C=C/C(=O)c2ccc(OC)cc2OC)cc1 [NCGC00160442-03] | > 10 | – | > 10 | > 10 | 0.7082 | > 10 | 6.6604 | – |
| CO[C@@H]1[C@@H](OC)[C@H](C)[C@@](O)(CC(=O)O)O[C@H]1[C@H](C)[C@H]1O[C@@]2(CC[C@@](C)([C@H]3CC[C@@](C)([C@@H]4O[C@@H]([C@H]5O[C@](C)(O)[C@H](C)C[C@@H]5C)C[C@@H]4OC4C[C@H](OC)[C@@H](OC)[C@H](C)O4)O3)O2)C[C@H](O)[C@H]1C.N (some centres unmarked) [NCGC00263563-01] | > 10 | > 10 | > 10 | > 10 | 2.751 | 2.568 | 0.2517 | – |
| CC(C)=CCC/C(C)=C/CC/C(C)=C/C(=O)OCC(=O)[C@@]1(O)CC[C@H]2[C@@H]3CCC4=CC(=O)C=C[C@]4(C)[C@H]3[C@@H](O)C[C@@]21C [NCGC00261967-01] | > 10 | > 10 | > 10 | > 10 | 0.05952 | > 10 | 3.3384 | – |
| CC(=O)Oc1ccccc1C(=O)Nc1ncc([N+](=O)[O-])s1 [NCGC00090774-05] | > 10 | > 10 | > 10 | > 10 | > 10 | > 10 | 2.0612 | – |
| O=C1c2c(O)cccc2Cc2cccc(O)c21 [NCGC00091330-07] | – | – | – | – | – | – | – | pIC50 (HeLa cells; [3]): < 5.00; pIC50 (HeLa cells; [7]): < 5.00; pIC50 (HeLa cells; [4]): < 5.00; pIC50 (HeLa cells; [5]): < 5.00; pIC50 (HeLa cells; [6]): < 5.00; pIC50 [1]: < 5.00; pIC50 [2]: 6.22 |
| NCCNc1ccc(NCCN)c2c1C(=O)c1ccncc1C2=O [NCGC00274280-01] | 0.042 | – | 0.04829 | > 10 | 0.04206 | > 10 | 0.0465 | – |
| CC(C)OC(=O)OCOP(=O)(CO[C@H](C)Cn1cnc2c(N)ncnc21)OCOC(=O)OC(C)C.O=C(O)/C=C/C(=O)O [NCGC00183876-03] | > 10 | – | > 10 | > 10 | 0.2888 | > 10 | 3.8408 | – |
| CCCCCCC[N+](CC)(CC)CCCCc1ccc(Cl)cc1.Cc1ccc(S(=O)(=O)[O-])cc1 [NCGC00168464-04] | – | – | – | – | – | – | – | IC50/EC50, Hela CellCycMod PI 2N (assay number 14) (HeLa cells; 2N): > 10 µM; IC50/EC50, Hela CellCycMod PI 4N (assay number 16) (HeLa cells; 4N): > 10 µM; IC50/EC50, Hela CellCycMod PI Cell Number (assay number 18) (HeLa cells): > 10 µM; IC50/EC50, Hela CellCycMod PI MI (assay number 17) (HeLa cells; MI): > 10 µM; IC50/EC50, VEGF_ADSC\ECFC Angio Hoechst NucArea (assay number 3) [1]: > 10 µM; IC50/EC50, VEGF_ADSC\ECFC Angio CD31 TubeArea (assay number 2) [2]: 6.3375 µM |
| O=C(CCBr)N1CCN(C(=O)CCBr)CC1 [NCGC00095048-06] | > 10 | > 10 | > 10 | > 10 | > 10 | > 10 | 1.3723 | – |
| CN1CCC[C@@H]1CCO[C@](C)(c1ccccc1)c1ccc(Cl)cc1.O=C(O)/C=C/C(=O)O [NCGC00016710-05] | – | – | – | – | – | > 10 | > 10 | – |
| COc1ccc(/C=N/NC(=O)c2ccncc2)cc1OC [NCGC00160656-02] | – | – | – | – | – | – | – | pIC50 [1]: < 5.00; pIC50 [2]: < 5.00 |
| CC[N+](CC)(CC)CCOc1ccc(/C=C/c2ccccc2)cc1 [NCGC00025122-02] | – | – | – | – | – | – | – | pIC50 [1]: < 5.00; pIC50 [2]: < 5.00 |
| COC(=O)C1=C(C)NC(C)=C(C(=O)OCCN2CCN(C(c3ccccc3)c3ccccc3)CC2)C1c1cccc([N+](=O)[O-])c1 (centres unmarked) [NCGC00167493-04] | – | – | – | – | – | – | – | IC50/EC50, VEGF_ADSC\ECFC Angio Hoechst NucArea (assay number 3) [1]: > 10 µM; IC50/EC50, VEGF_ADSC\ECFC Angio CD31 TubeArea (assay number 2) [2]: > 10 µM |
| CCOC(=O)C1=C[C@]2(CC)CCCN3CCc4c(n1c1ccccc41)[C@@H]32 [NCGC00018204-13] | – | – | – | – | – | – | – | IC50/EC50, VEGF_ADSC\ECFC Angio Hoechst NucArea (assay number 3) [1]: > 10 µM; IC50/EC50, VEGF_ADSC\ECFC Angio CD31 TubeArea (assay number 2) [2]: > 10 µM |
| O=C1CC(c2ccc(Cl)cc2)CC(=O)N1 [NCGC00262922-01] | – | – | – | – | – | – | – | IC50/EC50, VEGF_ADSC\ECFC Angio Hoechst NucArea (assay number 3) [1]: > 10 µM; IC50/EC50, VEGF_ADSC\ECFC Angio CD31 TubeArea (assay number 2) [2]: > 10 µM |
| O=C(CCN1CCC(c2ccccc2)C1)c1ccc2c(c1)OCCO2 (centres unmarked) [NCGC00160665-02] | – | – | – | – | – | > 10 | > 10 | – |

Source: paper PMC4503722, “Novel Phenotypic Outcomes Identified for a Public Collection of Approved Drugs from a Publicly Accessible Panel of Assays” (PLoS ONE, 2015)
